Results taken from paper PMC12346692, “SUL-150 Limits Vascular Remodeling and Ventricular Failure in Pulmonary Arterial Hypertension” (International Journal of Molecular Sciences, 2025).

Tests used:
[1] = system: neonatal rat cardiomyocytes; experiment: In vitro hypertrophy reporter assay in phenylephrine-treated cardiomyocytes; type: cell-based; settings: vehicle pre-incubation, phenylephrine 24 h
Description: Cultures of neonatal rat cardiomyocytes were prepared from 1–3-day-old Wistar rats and adenovirally transformed with hypertrophy reporter construct as described elsewhere. Cardiomyocytes were pre-incubated with SUL-150 (3 × 10^−5 M) or vehicle for 30 min and subsequently stimulated with phenylephrine in the dose range of 10^−8 to 10^−4 M for 24 h. Cells were lysed in passive lysis buffer (Promega, Madison, WI, USA), and […] intensity of the lysate was recorded in an EnVision 2102 plate reader (Perkin Elmer, Waltham, MA, USA).

pulmonary artery rings [2] = experiment: Ex vivo myography of pulmonary artery rings after chronic SUL-150 administration, phenylephrine-induced vasoconstriction; type: in vivo, rat; settings: for EC50: Rattus norvegicus, 840 h
pulmonary artery rings [3] = experiment: Ex vivo myography of pulmonary artery rings, acute SUL-150 pre-incubation, phenylephrine-induced vasoconstriction; set-up: species or system rat; settings: vehicle pre-incubation; for EC50: Rattus norvegicus
Description: The fourth-degree branching intralobar pulmonary arteries were carefully dissected under a Leica S4E stereomicroscope as described before. Arterial ring segments (2 mm length) were mounted in a Mulvany-type wire myograph system (model #610M, Danish Myo Technology, Aarhus, Denmark) using Ø40 µm steel wire. Rings were preserved in myography chambers filled with aerated Krebs buffer (pH 7.4) at 37 °C. After 20 min equilibration, rings were stretched to 1.8 kPa using the DMT Normalization Procedure and allowed to equilibrate for an additional 20 min. Analogue–digital signal conversion was performed using PowerLab 8/30, and a myogram was recorded in PowerLab Chart v 5.3 (AD Instruments, Oxford, UK). To assess the acute effects of SUL-150 on vasoconstriction, arterial rings were pre-constricted with 60 mM KCl and, following washout and stabilization, incubated with vehicle (0.1% DMSO) or SUL-150 (10^−4 M) for 20 min. Next, constriction responses to phenylephrine (phenylephrine, Sigma-Aldrich, St. Louis, MO, USA) were recorded in the dose range of 3 × 10^−9 to 3 × 10^−5 M. To assess the chronic effects of SUL-150 treatment, a similar protocol was followed, leaving out the preincubation with vehicle or SUL-150. Isometric responses were calculated as % of maximal KCl-induced constriction, and dose–response curves were recorded to determine the efficacy (Emax) and potency (EC50) of phenylephrine to induce vasoconstriction.

[4] = rings of sham control rats (day 35, chronic study)
[5] = rings of vehicle-treated PAH rats (day 35, chronic study)
[6] = pulmonary artery rings of PAH rats
[7] = pulmonary artery rings of sham rats

- EC50 (pulmonary artery rings [2]; [4]): 89.8 nM
- EC50 (pulmonary artery rings [2]; [5]): 1240 nM
- EC50 (pulmonary artery rings [3]; [6]): 1080 nM
- EC50 (pulmonary artery rings [3]; [7]): 174 nM
Compound: CNC[C@H](O)c1cccc(O)c1 [phenylephrine]
- EC50 ([1]; Rattus norvegicus, Cardiomyocyte): 1520 nM
- Emax of phenylephrine in hypertrophy reporter [1]: 3.93 RFU
- Emax of phenylephrine-induced vasoconstriction (pulmonary artery rings [2]; [4]): 33.0 ± 2.3 % of max
- Emax of phenylephrine-induced vasoconstriction (pulmonary artery rings [2]; [5]): 71.9 ± 9.2 % of max
- Emax of phenylephrine-induced vasoconstriction (pulmonary artery rings [3]; [6]): 43.4 % of max
- Emax of phenylephrine-induced vasoconstriction (pulmonary artery rings [3]; [7]): 34.7 % of max
